Measurements from ChEMBL document CHEMBL5584206, “Discovery of (S)-3-(4-(benzyloxy)phenyl)-2-(2-phenoxyacetamido)propanoic acid derivatives as a new class of GPR34 antagonists” (Bioorg Med Chem Lett, 2024).
Blank lines part the entries; values can stand above or below the compound they belong to. Activity calls are given as the source filed them. No cut-off for these calls is given here.

What was measured:
[1] = target: T1, Probable G-protein coupled receptor 34 (Homo sapiens, UniProt Q9UPC5); assay: Antagonist activity at GPR34 (unknown origin) by Glosensor cAMP assay; assay type: functional
T1 sequence (Q9UPC5 whole entry): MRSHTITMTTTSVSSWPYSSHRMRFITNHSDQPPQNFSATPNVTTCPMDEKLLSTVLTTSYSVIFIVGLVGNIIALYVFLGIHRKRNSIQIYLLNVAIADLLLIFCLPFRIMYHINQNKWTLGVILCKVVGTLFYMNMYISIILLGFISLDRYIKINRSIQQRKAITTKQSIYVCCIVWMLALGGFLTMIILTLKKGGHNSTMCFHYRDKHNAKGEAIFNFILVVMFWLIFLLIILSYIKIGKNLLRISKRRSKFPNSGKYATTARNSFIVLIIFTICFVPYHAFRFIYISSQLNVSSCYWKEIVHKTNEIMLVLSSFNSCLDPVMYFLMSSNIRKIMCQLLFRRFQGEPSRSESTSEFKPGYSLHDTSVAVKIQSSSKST

[2] = Cytotoxicity against human BEAS-2B cells incubated for 72 hrs by MTT assay; assay type: toxicity, cell-based
[3] = target: T2, C-X-C chemokine receptor type 5 (Homo sapiens, UniProt P32302); assay: Antagonist activity at CXCR5 (unknown origin); assay type: functional
T2 sequence (P32302 whole entry): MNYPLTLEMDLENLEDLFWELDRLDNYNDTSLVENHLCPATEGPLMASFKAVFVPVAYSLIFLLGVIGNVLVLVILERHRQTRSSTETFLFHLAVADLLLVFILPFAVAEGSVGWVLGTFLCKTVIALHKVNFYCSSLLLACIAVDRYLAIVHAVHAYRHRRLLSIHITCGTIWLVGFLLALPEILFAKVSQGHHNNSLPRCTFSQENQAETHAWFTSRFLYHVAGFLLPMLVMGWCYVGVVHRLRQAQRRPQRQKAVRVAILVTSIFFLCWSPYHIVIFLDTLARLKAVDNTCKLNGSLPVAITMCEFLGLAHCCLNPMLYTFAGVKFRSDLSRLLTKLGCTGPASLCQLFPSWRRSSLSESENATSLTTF

[4] = target: T1, Probable G-protein coupled receptor 34; assay: Antagonist activity at GPR34 (unknown origin) by Tango assay; assay type: functional
[5] = Cytotoxicity against African green monkey COS-7 cells incubated for 72 hrs by MTT assay; assay type: toxicity, cell-based, Chlorocebus aethiops
Cannabinoid receptor 2 [6] = target: T3, Cannabinoid receptor 2 (Homo sapiens, UniProt P34972); assay: Agonist activity at CB2 (unknown origin); assay type: functional
T3 sequence (P34972 whole entry): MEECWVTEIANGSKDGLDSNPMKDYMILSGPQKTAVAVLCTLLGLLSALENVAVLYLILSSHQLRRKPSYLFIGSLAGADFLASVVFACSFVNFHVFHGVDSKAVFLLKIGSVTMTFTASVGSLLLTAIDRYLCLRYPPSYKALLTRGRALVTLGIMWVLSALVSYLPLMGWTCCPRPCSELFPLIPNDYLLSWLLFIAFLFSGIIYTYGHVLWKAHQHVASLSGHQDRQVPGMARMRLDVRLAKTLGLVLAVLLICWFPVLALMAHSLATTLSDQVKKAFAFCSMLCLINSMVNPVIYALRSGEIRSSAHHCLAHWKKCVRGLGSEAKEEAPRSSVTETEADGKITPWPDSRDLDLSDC

[7] = Toxicity in C57BL/6 mouse assessed as body weight change at 100 mg/kg, ip bid for 6 days consecutively; assay type: organism-based; settings: in vivo, 144 h, time 6 day
Adenosine receptor A3 [8] = target: T4, Adenosine receptor A3 (Homo sapiens, UniProt P0DMS8); assay: Agonist activity at A3AR (unknown origin); assay type: functional
T4 sequence (P0DMS8 whole entry): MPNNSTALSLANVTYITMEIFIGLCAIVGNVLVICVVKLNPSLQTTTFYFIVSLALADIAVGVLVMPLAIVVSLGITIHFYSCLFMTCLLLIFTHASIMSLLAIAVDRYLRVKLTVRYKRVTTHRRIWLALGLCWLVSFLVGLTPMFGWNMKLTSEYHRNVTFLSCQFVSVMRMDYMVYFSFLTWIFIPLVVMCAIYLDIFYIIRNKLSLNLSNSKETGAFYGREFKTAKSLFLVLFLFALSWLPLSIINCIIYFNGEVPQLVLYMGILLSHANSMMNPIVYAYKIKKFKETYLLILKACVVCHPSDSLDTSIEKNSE

[9] = Cytotoxicity against HEK293 cells incubated for 72 hrs by MTT assay; assay type: toxicity, cell-based; settings: human
Cannabinoid receptor 2 [10] = target: T3, Cannabinoid receptor 2; assay: Antagonist activity at CB2 (unknown origin); assay type: functional
[11] = Cytotoxicity against human HUVEC cells incubated for 72 hrs by MTT assay; assay type: toxicity, cell-based
[12] = target: T5, Lysophosphatidic acid receptor 3 (Homo sapiens, UniProt Q9UBY5); assay: Agonist activity at LPAR3 (unknown origin); assay type: functional
T5 sequence (Q9UBY5 whole entry): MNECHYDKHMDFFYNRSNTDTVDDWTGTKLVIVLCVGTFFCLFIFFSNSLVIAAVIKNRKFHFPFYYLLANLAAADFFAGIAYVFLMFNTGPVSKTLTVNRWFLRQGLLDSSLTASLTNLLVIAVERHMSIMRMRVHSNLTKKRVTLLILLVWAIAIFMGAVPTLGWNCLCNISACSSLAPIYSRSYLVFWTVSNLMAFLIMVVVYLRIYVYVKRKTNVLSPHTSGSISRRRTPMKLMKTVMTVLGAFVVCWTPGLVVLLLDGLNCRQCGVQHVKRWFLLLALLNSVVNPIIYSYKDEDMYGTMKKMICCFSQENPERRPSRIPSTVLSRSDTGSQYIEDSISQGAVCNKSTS

[13] = target: T5, Lysophosphatidic acid receptor 3; assay: Antagonist activity at LPAR3 (unknown origin); assay type: functional
[14] = Acute toxicity in C57BL/6 mouse assessed as animal death at 200 mg/kg, ip; assay type: organism-based; settings: in vivo
[15] = Cytotoxicity against human LX2 cells incubated for 72 hrs by MTT assay; assay type: toxicity, cell-based; settings: LX-2 cells
Adenosine receptor A3 [16] = target: T4, Adenosine receptor A3; assay: Antagonist activity at A3AR (unknown origin); assay type: functional
[17] = Toxicity in C57BL/6 mouse assessed as indications of organ damage at 100 mg/kg, ip bid for 6 days consecutively; assay type: organism-based; settings: in vivo, 144 h, time 6 day
P2Y purinoceptor 12 [18] = target: T6, P2Y purinoceptor 12 (Homo sapiens, UniProt Q9H244); assay: Antagonist activity at P2Y12R (unknown origin); assay type: functional
T6 sequence (Q9H244 whole entry): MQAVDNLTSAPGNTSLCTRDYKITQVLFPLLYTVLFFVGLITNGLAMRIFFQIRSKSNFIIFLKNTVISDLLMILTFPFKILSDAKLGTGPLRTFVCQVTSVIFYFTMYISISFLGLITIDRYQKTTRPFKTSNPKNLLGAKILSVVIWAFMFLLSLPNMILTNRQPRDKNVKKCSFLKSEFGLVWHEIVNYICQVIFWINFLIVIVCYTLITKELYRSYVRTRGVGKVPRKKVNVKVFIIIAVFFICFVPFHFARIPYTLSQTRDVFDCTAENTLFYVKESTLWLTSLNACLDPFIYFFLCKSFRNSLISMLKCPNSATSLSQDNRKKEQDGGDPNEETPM

[19] = target: T7, Lysophosphatidic acid receptor 4 (Homo sapiens, UniProt Q99677); assay: Agonist activity at LPAR4 (unknown origin); assay type: functional
T7 sequence (Q99677 whole entry): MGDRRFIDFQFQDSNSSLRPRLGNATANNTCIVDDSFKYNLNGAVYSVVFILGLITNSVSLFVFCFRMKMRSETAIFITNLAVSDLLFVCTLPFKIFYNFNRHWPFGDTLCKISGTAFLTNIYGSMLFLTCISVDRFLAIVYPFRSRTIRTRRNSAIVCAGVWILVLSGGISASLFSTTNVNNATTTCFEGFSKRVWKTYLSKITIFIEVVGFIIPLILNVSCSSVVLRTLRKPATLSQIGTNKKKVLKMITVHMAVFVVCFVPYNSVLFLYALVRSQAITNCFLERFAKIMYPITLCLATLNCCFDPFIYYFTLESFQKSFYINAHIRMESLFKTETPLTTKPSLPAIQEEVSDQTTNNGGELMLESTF

[20] = Cytotoxicity against human Muller cells incubated for 72 hrs by MTT assay; assay type: toxicity, cell-based, Muller cell
[21] = target: T7, Lysophosphatidic acid receptor 4; assay: Antagonist activity at LPAR4 (unknown origin); assay type: functional
P2Y purinoceptor 12 [22] = target: T6, P2Y purinoceptor 12; assay: Agonist activity at P2Y12R (unknown origin); assay type: functional
Mus musculus = assay: Antinociceptive activity in mouse model of SNI-induced neuropathic pain assessed as reduction in mechanical allodynia at 10 to 20 mg/kg, ip bid; assay type: functional, organism-based; settings: dose 10-20 mg/kg
[23] = target: T2, C-X-C chemokine receptor type 5; assay: Agonist activity at CXCR5 (unknown origin); assay type: functional

Compound: O=C(COc1ccc(-c2cccc(Cl)c2)cc1)N[C@@H](Cc1ccc(OCc2ccccc2)cc1)C(=O)O
- IC50 at 72 h [2]: > 30 µM
- EC50 [3]: > 10 µM
- IC50 [4]: 0.059 µM
- IC50 at 72 h [5]: > 30 µM
- EC50 (Cannabinoid receptor 2 [6]): > 10 µM
- Activity [7]: Non-Toxic
- EC50 (Adenosine receptor A3 [8]): > 10 µM
- IC50 at 72 h [9]: > 30 µM
- EC50 (Cannabinoid receptor 2 [10]): > 10 µM
- IC50 at 72 h [11]: > 30 µM
- EC50 [12]: > 10 µM
- EC50 [13]: > 10 µM
- Activity [14]: Non-Toxic
- IC50 at 72 h [15]: > 30 µM
- EC50 (Adenosine receptor A3 [16]): > 10 µM
- IC50 [1]: 0.68 µM
- Activity [17]: Non-Toxic
- EC50 (P2Y purinoceptor 12 [18]): > 10 µM
- EC50 [19]: > 10 µM
- IC50 at 72 h [20]: > 30 µM
- EC50 [21]: > 10 µM
- EC50 (P2Y purinoceptor 12 [22]): > 10 µM
- Activity (Mus musculus): Active
- EC50 [23]: > 10 µM

Compound: O=C(COc1ccc(-c2cccc(Cl)c2)cc1)N[C@@H](CC1CCCCC1)C(=O)O
- IC50 [1]: > 30 µM

Compound: O=C(COc1ccc(Cl)cc1)N[C@@H](Cc1ccc(OCc2ccccc2)cc1)C(=O)O
- IC50 [1]: > 30 µM

Compound: Cn1nccc1-c1ccc(OCC(=O)N[C@@H](Cc2ccc(OCc3ccccc3)cc2)C(=O)O)cc1
- IC50 [1]: > 30 µM

Compound: O=C(COc1ccccc1)N[C@@H](Cc1ccc(OCc2ccccc2)cc1)C(=O)O
- IC50 [1]: > 30 µM

Compound: O=C(COc1cccnc1)N[C@@H](Cc1ccc(OCc2ccccc2)cc1)C(=O)O
- IC50 [1]: > 30 µM

Compound: O=C(COc1ccc(-c2cccc(Cl)c2)cc1)N[C@@H](Cc1ccccc1)C(=O)O
- IC50 [1]: > 30 µM

Compound: COC(=O)[C@H](Cc1ccc(OCc2ccccc2)cc1)NC(=O)COc1ccc(-c2cccc(Cl)c2)cc1
- IC50 [1]: > 30 µM

Compound: COc1cccc(OCC(=O)N[C@@H](Cc2ccc(OCc3ccccc3)cc2)C(=O)O)c1
- IC50 [1]: > 30 µM

Compound: Cc1ccc(OCC(=O)N[C@@H](Cc2ccc(OCc3ccccc3)cc2)C(=O)O)cc1
- IC50 [1]: > 30 µM

Compound: O=C(COc1ccc(-c2cccc(Cl)c2)cc1)N[C@@H](Cc1ccc(O)cc1)C(=O)O
- IC50 [1]: > 30 µM

Compound: O=C(COc1ccc(-c2ccccc2F)cc1)N[C@@H](Cc1ccc(OCc2ccccc2)cc1)C(=O)O
- IC50 [1]: > 30 µM

Continued, values first:

- IC50 [1]: 11.6 µM
Compound: O=C(COc1ccc(F)cc1)N[C@@H](Cc1ccc(OCc2ccccc2)cc1)C(=O)O

- IC50 [1]: > 30 µM
Compound: COc1cccc(-c2ccc(OCC(=O)N[C@@H](Cc3ccc(OCc4ccccc4)cc3)C(=O)O)cc2)c1

- IC50 [1]: 1.31 µM
Compound: O=C(COc1ccc(-c2cccc(C(F)(F)F)c2)cc1)N[C@@H](Cc1ccc(OCc2ccccc2)cc1)C(=O)O

- IC50 [1]: 2.98 µM
Compound: O=C(COc1ccc(-c2cccc(Cl)c2)cc1)N[C@H](Cc1ccc(OCc2ccccc2)cc1)C(=O)O

- IC50 [1]: 0.968 µM
Compound: O=C(COc1ccc(-c2ccc(F)cc2)cc1)N[C@@H](Cc1ccc(OCc2ccccc2)cc1)C(=O)O

- IC50 [1]: 1.28 µM
Compound: O=C(COc1ccc(-c2cccc(F)c2)cc1)N[C@@H](Cc1ccc(OCc2ccccc2)cc1)C(=O)O

- IC50 [1]: > 30 µM
Compound: C[C@H](NC(=O)COc1ccc(-c2cccc(Cl)c2)cc1)C(=O)O

- IC50 [1]: > 30 µM
Compound: O=C(COc1ccccc1F)N[C@@H](Cc1ccc(OCc2ccccc2)cc1)C(=O)O

- IC50 [1]: 1.57 µM
Compound: O=C(COc1ccc(-c2ccc(Cl)cc2)cc1)N[C@@H](Cc1ccc(OCc2ccccc2)cc1)C(=O)O

- IC50 [1]: > 30 µM
Compound: NC(=O)[C@H](Cc1ccc(OCc2ccccc2)cc1)NC(=O)COc1ccc(-c2cccc(Cl)c2)cc1

- IC50 [1]: > 30 µM
Compound: CC(C)c1ccc(OCC(=O)N[C@@H](Cc2ccc(OCc3ccccc3)cc2)C(=O)O)cc1

- IC50 [1]: 17.4 µM
Compound: N#Cc1cccc(OCC(=O)N[C@@H](Cc2ccc(OCc3ccccc3)cc2)C(=O)O)c1

- IC50 [1]: 13.9 µM
Compound: O=C(COc1cccc(F)c1)N[C@@H](Cc1ccc(OCc2ccccc2)cc1)C(=O)O
